The values that follow come from patent US9149547B2, “Process for production of heterodimers of glutamic acid” (Molecular Insight Pharmaceuticals, Inc., priority 2009, dated 2015).

A short description of data set [1]: Stability at room temperature, free I-123 content quantitated by HPLC. The format is physicochemical. Here is the method:
Stability Results: Stability was evaluated for up to 2 days at room temperature by quantitation of free 1-123 content present by HPLC. The stability was determined at room temperature in an attempt to accelerate any product degradation to more rapidly assess the effectiveness of each radioprotectants in the formulation matrix.

Data set [2] is described as follows: Stability profile of final formulation at room temperature (FIG. 4). To be noted: 6% sodium ascorbate/ascorbic acid with 2.3% sodium gentisate in sterile water for injection, compared to formulation of PBS (pH=9.0). The format is physicochemical. Here is the method:
In a 5 mL vial containing [^123I]NaI was added sterile water for injection (SWFI) (50 μL), 50% sulfuric acid in SWFI (50 μL), oxidant (100 μL) (which was prepared fresh via the incubation of acetic acid (0.2 mL) and 30% hydrogen peroxide (0.335 mL) followed by dilution to a final volume of 5 mL with SWFI), acetonitrile (0.5 mL), and the trimethylstannane precursor, Sn-MIP-1095 (compound 9) (100 μL of a 1 mg/mL solution in acetonitrile). The mixture was vortexed for 1 min and allowed to incubate at room temperature for an additional 10 minutes. The reaction was quenched with 200 μL of 0.1 M sodium thiosulfate. The product was then diluted in 18 mL of SWFI and loaded onto a C18 Sep Pak Plus column. The column was washed with 60 mL SWFI to remove unreacted radioiodine and inorganic and organic salts. The Sn-MIP-1095 precursor and ^123I-MIP-1095 ester are retained on the column. ^123I-MIP-1095 ester was eluted from the column using 4 mL of ethanol, while the Sn-MIP-1095 precursor was retained on the column. The resulting solution, containing the ^123I-MIP-1095 ester, was evaporated to dryness under a stream of nitrogen and the residue was dissolved in methylene chloride (0.5 mL) and TFA (2 mL) was added to remove the ester protecting groups. The deprotection solution was incubated at room temperature for 45 minutes. […]

The structures appear in SMILES notation.

Consider `O=C(O)CC[C@H](NC(=O)N[C@@H](CCCCNCc1ccc(I)cc1)C(=O)O)C(=O)O` [^123I-MIP-1072, ^123I—(S)-2-(3-((S)-1-carboxy-5-(4-iodobenzylamino)pentyl)ureido)pentanedioic Acid], for which, in data set [1] (6% ascorbate/3% gentisate formulation, 250 mCi scale-up runs), the stability of formulation result is “good stability”. Also, the “increase in free iodine” value in data set [1] (stored at room temperature, evaluated for up to 2 days, free I-123 by HPLC) is on record as 3-5 % per day.

In the case of `O=C(O)CC[C@H](NC(=O)N[C@@H](CCCCNC(=O)Nc1ccc(I)cc1)C(=O)O)C(=O)O` [^123I-MIP-1095, ^123I—(S)-2-(3-((S)-1-Carboxy-5-(3-(4-iodophenyl)ureido)pentyl)ureido)pentanedioic Acid], the “stability profile of final formulation” value in data set [2] is “stable profile”.
